# The source made the active and inactive calls. No cut-off for these calls is given here.
# Tests used:
# [1] = Metabolic stability in Wistar rat liver microsomes assessed as compound remaining at 1 uM after 20 mins by LC-MS/MS analysis relative to control; assay type: ADME, Microsome; settings: read-out: Stability
# [2] = Aqueous solubility of compound after 24 hrs by HPLC analysis; assay type: physicochemical; settings: for solubility at 24 h: aqueous; for solubility: buffer, 24 h
# [3] = Metabolic stability in Wistar rat plasma assessed as compound remaining at 3 uM after 40 mins by LC-MS/MS analysis relative to control; assay type: ADME, cell-free; settings: read-out: Stability
# [4] = Ratio of compound solubility to myricetin solubility in water after 24 hrs by HPLC analysis; assay type: physicochemical; settings: buffer
# [5] = Metabolic stability in Wistar rat liver microsomes assessed as compound remaining at 1 uM after 40 mins by LC-MS/MS analysis relative to control; assay type: ADME, Microsome; settings: read-out: Stability
# [6] = Metabolic stability in Wistar rat liver microsomes assessed as compound remaining at 1 uM after 60 mins by LC-MS/MS analysis relative to control; assay type: ADME, Microsome; settings: read-out: Stability
# [7] = Metabolic stability in Wistar rat liver microsomes assessed as compound remaining at 1 uM after 10 mins by LC-MS/MS analysis relative to control; assay type: ADME, Microsome; settings: read-out: Stability
# [8] = Metabolic stability in Wistar rat plasma assessed as compound remaining at 3 uM after 5 mins by LC-MS/MS analysis relative to control; assay type: ADME, cell-free; settings: read-out: Stability
# [9] = system: Mus musculus; experiment: Anti-inflammatory activity against DSS-induced ulcerative colitis C57BL/6 mouse model assessed as decrease in inflammatory score at 50 mg/kg, ig administered via gavage once a day for 14 consecutive days starting from second day post DSS challenge; assay type: functional, organism-based
# [10] = system: Mus musculus; experiment: Anti-inflammatory activity against DSS-induced ulcerative colitis C57BL/6 mouse model assessed as mild cellular infiltration in colon at 50 mg/kg, ig administered via gavage once a day for 14 consecutive days starting from second day post DSS challenge by H and E staining based analysis; assay type: functional, organism-based
# [11] = Toxicity in po dosed mouse; assay type: organism-based; settings: in vivo
# [12] = Metabolic stability in Wistar rat plasma assessed as compound remaining at 3 uM after 20 mins by LC-MS/MS analysis relative to control; assay type: ADME, cell-free; settings: read-out: Stability
# [13] = Elimination rate constant in Wistar rat plasma at 3 uM measured up to 180 mins by LC-MS/MS analysis; assay type: ADME, cell-free
# [14] = Ratio of compound t1/2 to myricetin t1/2 in Wistar rat liver microsomes at 1 uM measured up to 120 mins by LC-MS/MS analysis; assay type: ADME, Microsome; settings: 2 h
# [15] = Metabolic stability in Wistar rat liver microsomes assessed as compound remaining at 1 uM after 120 mins by LC-MS/MS analysis relative to control; assay type: ADME, Microsome; settings: read-out: Stability
# [16] = Metabolic stability in Wistar rat plasma assessed as compound remaining at 3 uM after 120 mins by LC-MS/MS analysis relative to control; assay type: ADME, cell-free; settings: read-out: Stability
# [17] = Metabolic stability in Wistar rat liver microsomes assessed as compound remaining at 1 uM after 30 mins by LC-MS/MS analysis relative to control; assay type: ADME, Microsome; settings: read-out: Stability
# [18] = Ratio of compound t1/2 to myricetin t1/2 in Wistar rat plasma at 3 uM measured up to 180 mins by LC-MS/MS analysis; assay type: ADME, cell-free; settings: 3 h
# [19] = Metabolic stability in Wistar rat plasma assessed as compound remaining at 3 uM after 90 mins by LC-MS/MS analysis relative to control; assay type: ADME, cell-free; settings: read-out: Stability
# [20] = Half life in Wistar rat liver microsomes at 1 uM measured up to 120 mins by LC-MS/MS analysis; assay type: ADME, Microsome; settings: 2 h
# [21] = Metabolic stability in Wistar rat plasma assessed as compound remaining at 3 uM after 60 mins by LC-MS/MS analysis relative to control; assay type: ADME, cell-free; settings: read-out: Stability
# [22] = Metabolic stability in Wistar rat plasma assessed as compound remaining at 3 uM after 180 mins by LC-MS/MS analysis relative to control; assay type: ADME, cell-free; settings: read-out: Stability
# [23] = Metabolic stability in Wistar rat liver microsomes assessed as compound remaining at 1 uM after 90 mins by LC-MS/MS analysis relative to control; assay type: ADME, Microsome; settings: read-out: Stability
# [24] = Metabolic stability in Wistar rat liver microsomes assessed as compound remaining at 1 uM after 5 mins by LC-MS/MS analysis relative to control; assay type: ADME, Microsome; settings: read-out: Stability
# [25] = Elimination rate constant in Wistar rat liver microsomes at 1 uM measured up to 120 mins by LC-MS/MS analysis; assay type: ADME, Microsome
# [26] = system: Mus musculus; experiment: Anti-inflammatory activity against DSS-induced ulcerative colitis C57BL/6 mouse model assessed as colon length at 50 mg/kg, ig administered via gavage once a day for 14 consecutive days starting from second day post DSS challenge (reference value: 5.93 to 7.1 cm); assay type: functional
# [27] = Metabolic stability in Wistar rat plasma assessed as compound remaining at 3 uM after 10 mins by LC-MS/MS analysis relative to control; assay type: ADME, cell-free; settings: read-out: Stability
# [28] = Half life in Wistar rat plasma at 3 uM measured up to 180 mins by LC-MS/MS analysis; assay type: ADME, cell-free
# [29] = system: Mus musculus; experiment: Anti-inflammatory activity against DSS-induced ulcerative colitis C57BL/6 mouse model assessed as increase in colon length administered via gavage once a day for 14 consecutive days starting from second day post DSS challenge; assay type: functional, organism-based
# [30] = system: Mus musculus; experiment: Anti-inflammatory activity against DSS-induced ulcerative colitis C57BL/6 mouse model assessed as colon length at 100 mg/kg, ig administered via gavage once a day for 14 consecutive days starting from second day post DSS challenge (reference value: 5.93 +/- 0.52 cm); assay type: functional
# [31] = system: Mus musculus; experiment: Anti-inflammatory activity against DSS-induced ulcerative colitis C57BL/6 mouse model assessed as colon length at 100 mg/kg, ig administered for 7 consecutive days followed by 7 days treatment with drinking water followed by three additional DSS treatment cycles (reference value: 5.93 +/- 0.52 cm); assay type: functional
structure (smiles),measurement,setting,value
O=c1c(O[C@@H]2O[C@H](CO)[C@@H](O[C@@H]3O[C@H](CO)[C@H](O)[C@H](O)[C@H]3O)[C@H](O)[C@H]2O)c(-c2cc(O)c(O)c(O)c2)oc2cc([O-])cc(O)c12.[Na+],"remaining at 20 min, 1 µM",[1],82.5%
same,solubility at 24 h,[2],> 100000 µg/mL
same,"remaining at 40 min, 3 µM",[3],82.4%
same,Ratio,[4],> 7000
same,"remaining at 40 min, 1 µM",[5],87.5%
same,"remaining at 1 h, 1 µM",[6],83.5%
same,"remaining at 10 min, 1 µM",[7],89.7%
same,"remaining at 5 min, 3 µM",[8],99.7%
same,inhibition,[9],Active
same,Activity,[10],Active
same,LD50,[11],> 5000 mg/kg
same,"remaining at 20 min, 3 µM",[12],79.8%
same,"k el at 3 h, 3 µM",[13],0.000167 s⁻¹
same,Ratio,[14],20
same,"remaining at 2 h, 1 µM",[15],76.1%
same,"remaining at 2 h, 3 µM",[16],55%
same,"remaining at 0.5 h, 1 µM",[17],87.2%
same,Ratio,[18],10
same,"remaining at 1.5 h, 3 µM",[19],67.8%
same,t1/2,[20],6.8098 h
same,"remaining at 1 h, 3 µM",[21],67.7%
same,"remaining at 3 h, 3 µM",[22],58.4%
same,"remaining at 1.5 h, 1 µM",[23],78.1%
same,"remaining at 5 min, 1 µM",[24],96.6%
same,"k el at 2 h, 1 µM",[25],0.000167 s⁻¹
same,Activity,[26],8.11 - 10.6 cm
same,"remaining at 10 min, 3 µM",[27],88.9%
same,half-life at 3 µM,[28],2.42 h
CC(=O)OC[C@H]1O[C@@H](O[C@H]2[C@H](OC(C)=O)[C@@H](OC(C)=O)[C@H](Oc3c(-c4cc(O)c(O)c(O)c4)oc4cc(O)cc(O)c4c3=O)O[C@@H]2COC(C)=O)[C@H](OC(C)=O)[C@@H](OC(C)=O)[C@H]1OC(C)=O,solubility at 24 h,[2],1390 µg/mL
same,Activity,[29],Active
O=c1c(O)c(-c2cc(O)c(O)c(O)c2)oc2cc(O)cc(O)c12 [MYRICETIN],"remaining at 20 min, 1 µM",[1],31.6%
same,solubility at 24 h,[2],14 µg/mL
same,"remaining at 40 min, 3 µM",[3],19%
same,"remaining at 40 min, 1 µM",[5],8.01%
same,"remaining at 1 h, 1 µM",[6],4.85%
same,"remaining at 10 min, 1 µM",[7],55.9%
same,"remaining at 5 min, 3 µM",[8],98.1%
same,"remaining at 20 min, 3 µM",[12],62.1%
same,"k el at 3 h, 3 µM",[13],0.000833 s⁻¹
same,"remaining at 2 h, 1 µM",[15],1.9%
same,"remaining at 2 h, 3 µM",[16],1.23%
same,"remaining at 0.5 h, 1 µM",[17],18.1%
same,"remaining at 1.5 h, 3 µM",[19],0.96%
same,t1/2,[20],0.3397 h
same,"remaining at 1 h, 3 µM",[21],5.81%
same,"remaining at 3 h, 3 µM",[22],0.53%
same,"remaining at 1.5 h, 1 µM",[23],3.32%
same,"remaining at 5 min, 1 µM",[24],81.3%
same,"k el at 2 h, 1 µM",[25],0.0005 s⁻¹
same,"remaining at 10 min, 3 µM",[27],89.2%
same,Activity,[30],6.55 cm
same,half-life at 3 µM,[28],0.234 h
O=C(Oc1c(-c2cc(O)c(O)c(O)c2)oc2cc(O)cc(OC(=O)c3ccccc3O)c2c1=O)c1ccccc1O,solubility,[2],< 0.1 µg/mL
same,Activity,[29],Active
Nc1ccc(O)c(C(=O)O)c1 [MESALAMINE],Activity,[31],7.15 cm
CC(=O)OC[C@H]1O[C@@H](O[C@H]2[C@H](OC(C)=O)[C@@H](OC(C)=O)[C@H](Oc3c(-c4cc(OCc5ccccc5)c(OCc5ccccc5)c(OCc5ccccc5)c4)oc4cc(OCc5ccccc5)cc(O)c4c3=O)O[C@@H]2COC(C)=O)[C@H](OC(C)=O)[C@@H](OC(C)=O)[C@H]1OC(C)=O,solubility,[2],< 0.1 µg/mL
same,Activity,[29],Active
O=C(Oc1cc(OC(=O)c2ccccc2O)c2c(=O)c(OC(=O)c3ccccc3O)c(-c3cc(OC(=O)c4ccccc4O)c(OC(=O)c4ccccc4O)c(OC(=O)c4ccccc4O)c3)oc2c1)c1ccccc1O,solubility,[2],< 0.02 µg/mL
same,Activity,[29],Active

# Reference: ChEMBL document CHEMBL4393682, “Development of M10, myricetin-3-O-β-d-lactose sodium salt, a derivative of myricetin as a potent agent of anti-chronic colonic inflammation” (Eur J Med Chem, 2019)
